Like-named read-outs stand apart in the source and are kept apart here.
Tests used:
Format in all cases: cell-based
[1] = test system: S. aureus (ATCC 6538); assay: Minimum inhibitory concentration / growth inhibition, serial 2-fold dilution
Experimental: (§1) The minimal inhibitory concentration (MIC, the minimum inhibitory concentration required for 90% growth reduction) of benzalkonium chloride was determined against S. aureus (ATCC 6538), P. aeruginosa (ATCC 15442), and E. coli (ATCC BAA 1427) by serial 2-fold dilution experiments. A solution of chlorhexidine (0.025% w/w) was used as a positive control and comparator.

[2] = test system: E. coli (ATCC BAA 1427); assay: as above
Experimental: as §1

[3] = test system: P. aeruginosa (ATCC 15442); assay: as above
Experimental: as §1

[4] = test system: E. coli; assay: Chequerboard assay, FIC and synergy analysis; settings: for MIC: Escherichia coli
Experimental: (§2) Chlorhexidine gluconate (CHG) and benzalkonium chloride (BZK) were analyzed by chequerboard assay with each test organism to determine potential additive, synergistic, antagonistic activity. The test organisms S. aureus, P. aeruginosa, and E. coli were tested at ranges of chlorhexidine gluconate (0.122-15.625 μg/mL, 1.25-160 μg/mL, and […], respectively) and benzalkonium chloride (0.029-3.75 μg/mL, 0.4688-60 μg/mL, and 0.2344-30 μg/mL, respectively). The results of the chequerboard experiment are shown in Table X. FIC was calculated by the following Equation 2: […]

[5] = test system: S. aureus; assay: Chequerboard assay, FIC and synergy analysis; settings: for MIC: Staphylococcus aureus
Experimental: as §2

[6] = test system: P. aeruginosa; assay: Chequerboard assay, FIC and synergy analysis; settings: for MIC: Pseudomonas aeruginosa
Experimental: as §2

[7] = test system: S. aureus (ATCC 6538); assay: Minimal bactericidal concentration, serial 2-fold dilution
Experimental: (§3) The minimal bactericidal concentration (MBC) of benzalkonium chloride was determined against S. aureus (ATCC 6538), P. aeruginosa (ATCC 15442), and E. coli (ATCC BAA 1427) by serial 2-fold dilution experiments. A solution of chlorhexidine (0.025% w/w) was used as a positive control and comparator.

[8] = test system: E. coli (ATCC BAA 1427); assay: as above
Experimental: as §3

[9] = test system: P. aeruginosa (ATCC 15442); assay: as above
Experimental: as §3

[10] = read-out: MIC of CHG in Presence of BZK
[11] = concentration 250 μg/mL (0.025% w/w), positive control
[12] = concentration 250 μg/mL (0.025% w/w), positive control, listed as chlorhexidine
[13] = concentration 250 μg/mL, positive control
[14] = concentration 0.46875 μg/mL, triplicate
[15] = concentration 0.9375 μg/mL, triplicate
[16] = concentration 1.875 μg/mL, triplicate
[17] = concentration 3.75 μg/mL, triplicate
[18] = concentration 7.5 μg/mL, triplicate
[19] = concentration 15 μg/mL, triplicate
[20] = concentration 30 μg/mL, triplicate
[21] = concentration 60 μg/mL, triplicate
[22] = serial 2-fold dilution, triplicate
[23] = concentration 0.46875 μg/mL, average of triplicate
[24] = concentration 0.9375 μg/mL, average of triplicate
[25] = concentration 1.875 μg/mL, average of triplicate
[26] = concentration 3.75 μg/mL, average of triplicate
[27] = concentration 7.5 μg/mL, average of triplicate
[28] = concentration 15 μg/mL, average of triplicate
[29] = concentration 30 μg/mL, average of triplicate
[30] = concentration 60 μg/mL, average of triplicate

N=C(NCCCCCCNC(=N)NC(=N)Nc1ccc(Cl)cc1)NC(=N)Nc1ccc(Cl)cc1 [Chlorhexidine gluconate, 1-[amino-[6-[amino-[amino-(4-chlorophenyl)amino-methylidene]amino-methylidene]aminohexylimino]methyl]imino-N-(4-chlorophenyl)-methanediamine; (2R,3S,4R,5R)-2,3,4,5,6-pentahydroxyhexanoic acid.]
inhibition at 250 µg/mL ([1]; Staphylococcus aureus, ATCC6538, read-out: Average Growth Inhibition (%)): 121%
inhibition at 250 µg/mL ([2]; Escherichia coli, BAA1427, concentration 250 μg/mL (0.025% w/w), positive control): 63%
inhibition at 250 µg/mL ([3]; Pseudomonas aeruginosa, ATCC15442, read-out: Average Growth Inhibition (%)): 81%
MIC ([4]; read-out: MIC of CHG Alone): 8 mg/L
MIC [4, 10]: 4 mg/L
MIC ([5]; read-out: MIC of CHG Alone): 1.95 mg/L
MIC [5, 10]: 0.977 mg/L
MIC ([6]; read-out: MIC of CHG Alone (μg/mL)): 40 µg/mL
MIC ([6]; read-out: MIC of CHG in Presence of BZK (μg/mL)): 2.5 µg/mL
Number of Colonies [7, 11]: 0
Number of Colonies [7, 12]: no colonies
CFU/mL [7, 13]: 0 CFU/mL
Number of Colonies [8, 11]: 0
Number of Colonies [8, 12]: no colonies
CFU/mL [8, 13]: 0 CFU/mL
Number of Colonies [9, 11]: 0
Number of Colonies [9, 12]: no colonies
CFU/mL [9, 13]: 0 CFU/mL

Benzalkonium chloride
Average Growth Inhibition (%) [1, 14]: −30%
Average Growth Inhibition (%) [1, 15]: 100%
Average Growth Inhibition (%) [1, 16]: 101%
Average Growth Inhibition (%) [1, 17]: 101%
Average Growth Inhibition (%) [1, 18]: 99%
Average Growth Inhibition (%) [1, 19]: 101%
Average Growth Inhibition (%) [1, 20]: 101%
Average Growth Inhibition (%) [1, 21]: 98%
MIC that inhibited greater than 90% growth [1, 22]: 0.9375 mg/L
Average Growth Inhibition (%) [2, 14]: 3%
Average Growth Inhibition (%) [2, 15]: 5%
Average Growth Inhibition (%) [2, 16]: 6%
Average Growth Inhibition (%) [2, 17]: 7%
Average Growth Inhibition (%) [2, 18]: 18%
Average Growth Inhibition (%) [2, 19]: 100%
Average Growth Inhibition (%) [2, 20]: 100%
Average Growth Inhibition (%) [2, 21]: 100%
MIC that inhibited greater than 90% growth [2, 22]: 15 mg/L
Average Growth Inhibition (%) [3, 14]: 4%
Average Growth Inhibition (%) [3, 15]: 5%
Average Growth Inhibition (%) [3, 16]: 7%
Average Growth Inhibition (%) [3, 17]: 7%
Average Growth Inhibition (%) [3, 18]: 8%
Average Growth Inhibition (%) [3, 19]: 8%
Average Growth Inhibition (%) [3, 20]: 28%
Average Growth Inhibition (%) [3, 21]: 100%
MIC that inhibited greater than 90% growth [3, 22]: 60 mg/L
MIC of BZK Alone ([4]; alone): 15 mg/L
MIC of BZK in Presence of CHG ([4]; in presence of CHG): 0.2344 mg/L
MIC of BZK Alone ([5]; alone): 0.9375 mg/L
MIC of BZK in Presence of CHG ([5]; in presence of CHG): 0.469 mg/L
MIC of BZK Alone ([6]; alone): 60 mg/L
MIC of BZK in Presence of CHG ([6]; in presence of CHG): 7.5 mg/L
CFU/mL ([7]; concentration 0.46875 μg/mL): Lawn
Number of Colonies [7, 23]: Lawn (‘Lawn’ indicates too many colonies to accurately count (e.g., greater than 250 colonies on an agar plate))
CFU/mL ([7]; concentration 0.9375 μg/mL): Lawn
Number of Colonies [7, 24]: Lawn (‘Lawn’ indicates too many colonies to accurately count (e.g., greater than 250 colonies on an agar plate))
CFU/mL ([7]; concentration 1.875 μg/mL): 1133.3 CFU/mL
Number of Colonies [7, 25]: 11.333
CFU/mL ([7]; concentration 3.75 μg/mL): 1500 CFU/mL
Number of Colonies [7, 26]: 15
CFU/mL ([7]; concentration 7.5 μg/mL): 33.333 CFU/mL
Number of Colonies [7, 27]: 0.333
CFU/mL ([7]; concentration 15 μg/mL): 0 CFU/mL
Number of Colonies [7, 28]: 0
CFU/mL ([7]; concentration 30 μg/mL): 0 CFU/mL
Number of Colonies [7, 29]: 0
CFU/mL ([7]; concentration 60 μg/mL): 0 CFU/mL
Number of Colonies [7, 30]: 0
MBC (defined as having less than 500 CFU/mL) [7, 22]: 7.5 mg/L
CFU/mL ([8]; concentration 0.46875 μg/mL): Lawn
Number of Colonies [8, 23]: Lawn (‘Lawn’ indicates too many colonies to accurately count (e.g., greater than 250 colonies on an agar plate))
CFU/mL ([8]; concentration 0.9375 μg/mL): Lawn
Number of Colonies [8, 24]: Lawn (‘Lawn’ indicates too many colonies to accurately count (e.g., greater than 250 colonies on an agar plate))
CFU/mL ([8]; concentration 1.875 μg/mL): Lawn
Number of Colonies [8, 25]: Lawn (‘Lawn’ indicates too many colonies to accurately count (e.g., greater than 250 colonies on an agar plate))
CFU/mL ([8]; concentration 3.75 μg/mL): Lawn
Number of Colonies [8, 26]: Lawn (‘Lawn’ indicates too many colonies to accurately count (e.g., greater than 250 colonies on an agar plate))
CFU/mL ([8]; concentration 7.5 μg/mL): Lawn
Number of Colonies [8, 27]: Lawn (‘Lawn’ indicates too many colonies to accurately count (e.g., greater than 250 colonies on an agar plate))
CFU/mL ([8]; concentration 15 μg/mL): 0 CFU/mL
Number of Colonies [8, 28]: 0
CFU/mL ([8]; concentration 30 μg/mL): 0 CFU/mL
Number of Colonies [8, 29]: 0
CFU/mL ([8]; concentration 60 μg/mL): 0 CFU/mL
Number of Colonies [8, 30]: 0
MBC (defined as having less than 500 CFU/mL) [8, 22]: 15 mg/L
CFU/mL ([9]; concentration 0.46875 μg/mL): Lawn
Number of Colonies [9, 23]: Lawn (‘Lawn’ indicates too many colonies to accurately count (e.g., greater than 250 colonies on an agar plate))
CFU/mL ([9]; concentration 0.9375 μg/mL): Lawn
Number of Colonies [9, 24]: Lawn (‘Lawn’ indicates too many colonies to accurately count (e.g., greater than 250 colonies on an agar plate))
CFU/mL ([9]; concentration 1.875 μg/mL): Lawn
Number of Colonies [9, 25]: Lawn (‘Lawn’ indicates too many colonies to accurately count (e.g., greater than 250 colonies on an agar plate))
CFU/mL ([9]; concentration 3.75 μg/mL): Lawn
Number of Colonies [9, 26]: Lawn (‘Lawn’ indicates too many colonies to accurately count (e.g., greater than 250 colonies on an agar plate))
CFU/mL ([9]; concentration 7.5 μg/mL): Lawn
Number of Colonies [9, 27]: Lawn (‘Lawn’ indicates too many colonies to accurately count (e.g., greater than 250 colonies on an agar plate))
CFU/mL ([9]; concentration 15 μg/mL): Lawn
Number of Colonies [9, 28]: Lawn (‘Lawn’ indicates too many colonies to accurately count (e.g., greater than 250 colonies on an agar plate))
CFU/mL ([9]; concentration 30 μg/mL): Lawn
Number of Colonies [9, 29]: Lawn (‘Lawn’ indicates too many colonies to accurately count (e.g., greater than 250 colonies on an agar plate))
CFU/mL ([9]; concentration 60 μg/mL): 166.67 CFU/mL
Number of Colonies [9, 30]: 1.6667
MBC (defined as having less than 500 CFU/mL) [9, 22]: 60 mg/L

— patent US20250213505A1, “DEVICES AND METHODS FOR DELIVERING SYNERGISTIC ACTIVE AGENTS TO TARGET SITES” (priority 2023, published 2025)
